In PubChem BioAssay (NCI) one finds TGI and GI50 data, which are given here for six compounds.

What all share (experiment): NCI anticancer screen, dose series, 48 h
Test [1] has as its system HS 578T breast.
Test [2] concerns M14 melanoma.
For test [3], the system named is NCI-H460 lung.
For test [4], the system named is SR leukemia.
Test [5] concerns COLO 205 colon.
For test [6], the system named is SK-MEL-5 melanoma.
For test [7], the system named is BT-549 breast.
Test [8] concerns UACC-62 melanoma.
Test [9] relates to DU-145 prostate.
Test [10] deals with NCI-H23 lung.

“And” between values parts separate entries of the source, which are not always exact repeats. Identical values can stand only once.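 96-well plates; 48 h exposure; 5 concentrations. Endpoints by linear interpolation between flanking doses. Not reached: highest tested concentration assigned. GI50 is the concentration that inhibits growth by half. TGI is the concentration that stops growth completely.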

Turning to `c1ccc(-c2cc(-c3cc(-c4ccccn4)[nH]n3)n[nH]2)nc1`, the TGI is over 100 µM in [1]; over 100 µM in [2]; over 100 µM in test [3]; 80.6 µM in [4]; over 100 µM in test [5]; over 100 µM in test [6]. Besides, the TGI in test [7], in [8], in [9] and in test [10] was over 100 µM throughout.
Turning to `C=CC(=O)Nc1cc2c(Nc3ccc(OCc4ccccn4)c(Cl)c3)ncnc2cc1OCCN1CCOCC1`, the GI50 in test [1] was 2.01 µM; in test [2], 4.18 µM; in test [3], 4.28 µM; in [4] it was 2.62 µM; in [5], 6.19 µM; in [6], 3.8 µM. In addition, the GI50 was 8.86 µM in test [7], 2.85 µM in [8], 0.502 µM in [9] and 5.24 µM in test [10]. Moreover, the TGI is over 100 µM in test [1]; 19.6 µM in [2]; over 100 µM in [3]; over 100 µM in [4]; over 100 µM in test [5]; 14.3 µM in test [6]. Besides, the TGI in test [7] is 37.4 µM; in [8], 17.4 µM; in [9], over 100 µM; in [10], 20 µM.
Regarding `CC/C(=C(\c1ccc(O)cc1)c1ccc(OCCNC)cc1)c1ccccc1`, the GI50 in test [1] is 0.356 µM and 1.34 µM and 1.78 µM; in test [2] it was 1.8 µM and 1.75 µM and 1.86 µM; in test [3], 1.98 µM and 1.83 µM and 1.89 µM; in [4] it was 2.42 µM and 1.63 µM and 2.22 µM; in test [5] it was 1.78 µM and 1.8 µM; in test [6], 1.77 µM and 1.66 µM and 1.71 µM. Further, the GI50 was 2.39 µM and 1.84 µM and 3.33 µM in test [7]; 1.66 µM and 1.65 µM and 1.78 µM in [8]; 2.15 µM and 1.71 µM and 2.33 µM in test [9]; 2.13 µM and 1.97 µM and 2.1 µM in test [10]. Moreover, the TGI in [1] was 3.42 µM and 3.32 µM and 5.18 µM; in [2] it was 3.25 µM and 3.24 µM and 3.63 µM; in test [3], 3.67 µM and 3.45 µM and 3.66 µM; in test [4], 5.85 µM and 4.11 µM and 5.54 µM; in test [5], 3.28 µM and 3.31 µM and 3.44 µM; in [6] it was 3.17 µM and 3.07 µM. Moreover, the TGI was 5.61 µM and 3.77 µM and 8.64 µM in test [7]; 3.41 µM and 3.24 µM and 3.44 µM in [8]; 4.36 µM and 3.46 µM and 5.25 µM in test [9]; 4.8 µM and 4.29 µM and 4.45 µM in test [10].
As for `CC1=CC(C)C(O)C(C)/C=C/C(O)C/C=C(/C)C(=O)CC(O)C(C)\C=C/C=C/C=C\C(=O)NC2=C(O)c3cc(C)c(O)c(c3C(=O)C2=O)C1=O` (stereo not given), the TGI in test [1], in test [2], in [3], in test [4], in test [5] and in test [6] was over 100 µM throughout. Besides, the TGI in test [7], in test [8], in [9] and in test [10] was over 100 µM throughout.
`O=C1c2cccc3c(N4CCN(c5ccc6c7c(cccc57)C(=O)N(CCN5CCNCC5)C6=O)CC4)ccc(c23)C(=O)N1CCN1CCNCC1`: the GI50 in test [1] was 17.2 µM; in test [2], 15 µM; in test [3], 12.5 µM; in test [4] it was 2.64 µM; in [5], 8.87 µM; in test [6], 16.1 µM. The GI50 was 19 µM in test [7], 15 µM in [8], 14.1 µM in [9] and 11 µM in test [10]. Further, the TGI in [1] was 44.8 µM; in [2], 37.2 µM; in [3], 80 µM; in test [4] it was 8.66 µM; in test [5], over 100 µM; in [6] it was 53.4 µM. Also, the TGI turned out to be 39.3 µM in test [7], 30.2 µM in test [8], 40.6 µM in test [9] and 26.3 µM in test [10].
Regarding `NC(=O)c1c(OCc2c(F)cc(Br)cc2F)nsc1NC(=O)NCCCCN1CCCC1`, the GI50 in test [1] was 0.157 µM; in test [2], 1.6 µM; in test [3] it was 2.6 µM; in test [4] it was 1.74 µM; in test [5], 1.9 µM; in test [6], 1.56 µM. The GI50 was 6.64 µM in test [7], 1.82 µM in test [8], 4.59 µM in test [9] and 5.18 µM in [10]. Further, the TGI in test [1] is 0.971 µM; in test [2], 3.46 µM; in test [3], over 10 µM; in test [4], 4.37 µM; in test [5] it was 4.05 µM; in test [6] it was 2.96 µM. Moreover, the TGI was over 10 µM in test [7], 3.93 µM in test [8], over 10 µM in test [9] and over 10 µM in test [10].
